Patent US12391641B2, “Prostaglandin EP4 receptor antagonist compounds” (NXERA PHARMA UK LIMITED, priority 2019, dated 2025)

Target: T1, Human prostaglandin E2 receptor 4 (EP4) (Homo sapiens, UniProt P35408)
T1 construct: expressed in transfected cells; host or cells: HEK293 cells transduced with EP4 BacMam virus
Assay: cAMP Gs Functional Assay (HTRF cAMP dynamic-2), antagonism of PGE2
Assay type: cell-based
Conditions: HEK293 cells transfected with EP4 BacMam virus; PGE2 challenge at EC80 (7 nM); pIC50 converted to functional pKb with a modified Cheng Prussoff equation; read-out: Human EP4 fpKb (converted)
Protocol: Cloning, Baculovirus generation, large scale infection of HEK293 cells and membrane preparation: Human prostaglandin E2 receptor 4 (EP4) was cloned into pBacMam expression vector (GeneScript, UK). Transposition of EP4 DNA was performed using Invitrogen's Bac-to-Bac Baculovirus Expression Systems. P0 baculovirus was generated by transfecting SF9 Cells with bacmid DNA using Cellfectin II transfection reagent (ThermoFisher Scientific, UK, catalog number 10362-100). Following P0 generation P1 virus was then generated ready for large scale infection and membrane preparation. HEK293 cells were grown in DMEM+Glutamax, supplemented with 10% heat inactivated fetal bovine serum (FBS). Cells were infected at a seeding density of 3.5 million cells/mL in 500 cm^3 flasks at 5% v/v EP4 Bacman. Expression was carried out over 36 hr period at 37° C. with 5% CO2. The cells were removed using PBS and a cell scrapper. The cell culture was centrifuged at 2500 RPM for 10 mins at 4° C. The supernatant was then poured off and the pellet stored at −80° C. The pellet was defrosted and re-suspended in 15 mL of homogenising buffer (20 mM HEPES, 10 mM EDTA, pH 7.4). Then homogenised in mechanical homogeniser (VMR) for 10 seconds. The membrane was centrifuged in centrifuge tubes at 40,000 g for 15 mins at 4° C. The supernatant was poured away and re-suspended in 15 mL of homogenising buffer. Homogenised for 20 seconds. The membrane was centrifuged at 40,000 g for 45 mins at 4° C. The membrane was re-suspended in 3 mL of storage buffer (20 mM HEPES, 0.1 mM EDTA, pH 7.4) mixing well. The resulting membranes were then stored at −80° C.
cAMP Gs Functional Assay: cAMP production following EP4 receptor activation was determined using the Homogeneous Time-Resolved Fluorescence (HTRF) cAMP dynamic-2 assay (Cisbio, France). HEK293 cells were transfected using a 0.5% EP4 Bacman virus for 36 hours, before dissociating the cells, and freezing at […].
On the day of testing, increasing concentration of test compounds, alongside positive controls (1 uM ONO-AE3-208) and negative control (DMSO (Sigma-Aldrich, UK) were added to a ProxiPlate-384 Plus, White 384-shallow well Mircoplate, (PerkinElmer, USA) using the ECHO dispense.
Cells were defrosted in a water bath and resuspended in DMEM supplemented with 10% FBS before centrifuging at 1200 RPM for 5 mins to form a pellet. The pellet was resuspended in assay buffer (DMEM+0.5 mM IBMX (Tocris, Abingdon, UK, Catalog Number 2845)) to a 1×10^6 cells/mL. Cell suspension, for a final assay concentration of 5000 cell/well was added using the multidrop to the pre-dispensed assay plate. The plate was then incubated at 37° C. for 30 mins, with 5% CO2. After incubation, EC80 concentration (7 nM) of PGE2 (EP4 agonist) was added to the plate. In parallel, a PGE2 dose-response curve was dispense to a separate plate. Assay buffer was then dispensed on top. The cAMP production was determined as manufacturer's instructions, before plates were read on a PheraStar fluorescence plate reader (BMG LabTech, Germany).
The pIC50 was converted to a functional pKb value using a modified Cheng Prussoff equation where Kd=agonist EC50 and Lhot=agonist challenge concentration;

T1 sequence (P35408 whole entry): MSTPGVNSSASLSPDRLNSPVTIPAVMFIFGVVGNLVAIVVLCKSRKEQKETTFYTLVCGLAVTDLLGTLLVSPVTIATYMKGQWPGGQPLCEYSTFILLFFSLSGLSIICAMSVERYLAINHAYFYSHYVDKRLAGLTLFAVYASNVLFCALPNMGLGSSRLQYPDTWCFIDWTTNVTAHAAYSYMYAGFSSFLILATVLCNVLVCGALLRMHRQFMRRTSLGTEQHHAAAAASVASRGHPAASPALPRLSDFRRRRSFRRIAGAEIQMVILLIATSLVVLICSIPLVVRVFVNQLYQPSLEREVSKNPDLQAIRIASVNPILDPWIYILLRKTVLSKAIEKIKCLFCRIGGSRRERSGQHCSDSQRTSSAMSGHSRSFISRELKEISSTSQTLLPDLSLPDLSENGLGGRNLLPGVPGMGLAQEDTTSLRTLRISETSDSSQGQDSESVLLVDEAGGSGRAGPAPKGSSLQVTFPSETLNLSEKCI

SMILES | Ki [nM]
CC(C)[C@H](OCc1ccc(F)cc1)C(=O)N[C@@H](C)c1ccc(C(=O)O)cc1 [Example 4, 4-((S)-1-((S)-2-((4-fluorobenzyl)oxy)-3-methylbutanamido)ethyl)benzoic acid] | > 195
CC(C)[C@@H](OCc1ccc(F)c(S(C)(=O)=O)c1)C(=O)N[C@@H](C)c1ccc(C(=O)O)cc1 [Example 35, 4-((S)-1-((R)-2-((4-fluoro-3-(methylsulfonyl)benzyl)oxy)-3-methylbutanamido)ethyl)benzoic acid] | 7.41
CC(C)C(OCc1cccc(F)c1)C(=O)N[C@@H](C)c1ccc(C(=O)O)cc1 (single isomer, unassigned) [Example 17] | 3.02
Cc1cc([C@H](C)NC(=O)[C@H](OCc2ccc(C(F)(F)F)cc2)C(C)C)ccc1C(=O)O [Example 36, 2-methyl-4-((S)-1-((R)-3-methyl-2-((4-(trifluoromethyl)benzyl)oxy)butanamido)ethyl)benzoic acid] | 25.7
CC(C)[C@@H](OCc1ccc(F)c(F)c1)C(=O)NC1(c2ccc(C(=O)O)cc2)CC1 [Example 37, (R)-4-(1-(2-((3,4-difluorobenzyl)oxy)-3-methylbutanamido)cyclopropyl)benzoic acid] | 1.23
CC(C)[C@@H](OCc1ccc(Cl)cc1)C(=O)N[C@@H](C)c1ccc(C(=O)O)cc1 [Example 11, 4-((S)-1-((R)-2-((4-chlorobenzyl)oxy)-3-methylbutanamido)ethyl)benzoic acid] | 3.16
CC(C)[C@@H](OCc1cccc(CO)c1)C(=O)N[C@@H](C)c1ccc(C(=O)O)cc1 [Example 45, 4-((S)-1-((R)-2-((3-(hydroxymethyl)benzyl)oxy)-3-methylbutanamido)ethyl)benzoic acid] | 10
CC(C)[C@@H](OCc1ccc(OC(F)F)cc1)C(=O)N[C@@H](C)c1ccc(C(=O)O)cc1 [Example 23, 4-((S)-1-((R)-2-((4-(difluoromethoxy)benzyl)oxy)-3-methylbutanamido)ethyl)benzoic acid] | 14.5
CC(C)[C@@H](OCc1ccc2c(c1)OC(F)(F)O2)C(=O)NC1(c2ccc(C(=O)O)cc2)CC1 [Example 55, (R)-4-(1-(2-((2,2-difluorobenzo[d][1,3]dioxol-5-yl)methoxy)-3-methylbutanamido)cyclopropyl)benzoic acid] | 0.479
CC(C)C(OCc1ccc(C2COC2)cc1)C(=O)N[C@@H](C)c1ccc(C(=O)O)cc1 (mixture of isomers) [Example 47, 4-((1S)-1-(3-methyl-2-((4-(oxetan-3-yl)benzyl)oxy)butanamido)ethyl)benzoic acid] | 64.6
CC(C)[C@@H](OCc1cccc(OC(F)F)c1)C(=O)N[C@@H](C)c1ccc(C(=O)O)cc1 [Example 24, 4-((S)-1-((R)-2-((3-(difluoromethoxy)benzyl)oxy)-3-methylbutanamido)ethyl)benzoic acid] | 0.302
CC(C)[C@@H](OCc1ccc(C(F)(F)F)cc1)C(=O)N[C@@H](C)c1ccc(-c2nnn[nH]2)cc1 [Example 43, (R)—N—((S)-1-(4-(1H-tetrazol-5-yl)phenyl)ethyl)-3-methyl-2-((4-(trifluoromethyl)benzyl)oxy)butanamide] | 0.501
CC(C)[C@@H](OCc1ccc(F)c(OC(F)F)c1)C(=O)N[C@@H](C)c1ccc(C(=O)O)cc1 [Example 32, 4-((S)-1-((R)-2-((3-(difluoromethoxy)-4-fluorobenzyl)oxy)-3-methylbutanamido)ethyl)benzoic acid] | 0.224
CC(C)[C@@H](OCc1cccc(OC(F)F)c1)C(=O)NC1(c2ccc(C(=O)O)cc2)CC1 [Example 52, (R)-4-(1-(2-((3-(difluoromethoxy)benzyl)oxy)-3-methylbutanamido)cyclopropyl)benzoic acid] | 0.389
CC(C)[C@@H](OCc1cccc(Cl)c1)C(=O)NC1(c2ccc(C(=O)O)cc2)CC1 [Example 50, (R)-4-(1-(2-((3-chlorobenzyl)oxy)-3-methylbutanamido)cyclopropyl)benzoic acid] | > 12900

More lines, now with the values ahead:

Ki [nM] | SMILES
0.447 | CC(C)[C@@H](OCc1ccnc(OC(F)F)c1)C(=O)N[C@@H](C)c1ccc(C(=O)O)cc1 [Example 74, 4-((S)-1-((R)-2-((2-(difluoromethoxy)pyridin-4-yl)methoxy)-3-methylbutanamido)ethyl)benzoic acid]
> 20900 | CC(C)[C@@H](OCc1ccc(F)c(Cl)c1)C(=O)NC1(c2ccc(C(=O)O)cc2)CC1 [Example 78, (R)-4-(1-(2-((3-chloro-4-fluorobenzyl)oxy)-3-methylbutanamido)cyclopropyl)benzoic acid]
0.339 | CC(C)[C@@H](OCc1ccc(C(F)F)c(F)c1)C(=O)NC1(c2ccc(C(=O)O)cc2)CC1 [Example 61, (R)-4-(1-(2-((4-(difluoromethyl)-3-fluorobenzyl)oxy)-3-methylbutanamido)cyclopropyl)benzoic acid]
0.186 | CC(C)[C@@H](OCc1cccc(C2CC2)c1)C(=O)N[C@@H](C)c1ccc(-c2nnn[nH]2)cc1 [Example 83, (R)—N—((S)-1-(4-(1H-tetrazol-5-yl)phenyl)ethyl)-2-((3-cyclopropylbenzyl)oxy)-3-methylbutanamide]
7.24 | CCS(=O)(=O)c1cccc(CO[C@@H](C(=O)NC2(c3ccc(C(=O)O)cc3)CC2)C(C)C)c1 [Example 56, (R)-4-(1-(2-((3-(ethylsulfonyl)benzyl)oxy)-3-methylbutanamido)cyclopropyl)benzoic acid]
4.68 | C[C@H](NC(=O)C(OCc1ccc(C(F)(F)F)cc1)C1CCC1)c1ccc(C(=O)O)cc1 (mixture of isomers) [Example 92, 4-((1S)-1-(2-cyclobutyl-2-((4-(trifluoromethyl)benzyl)oxy)acetamido)ethyl)benzoic acid]
302 | CC(C)[C@@H](OCc1ccc(F)cc1)C(=O)N[C@@H](C)c1ccc(C(=O)NS(=O)(=O)C2CC2)cc1 [Example 81, N-(cyclopropylsulfonyl)-4-((S)-1-((R)-2-((4-fluorobenzyl)oxy)-3-methylbutanamido)ethyl)benzamide]
0.575 | CC(C)[C@@H](OCc1ccnc(OC(F)F)c1)C(=O)NC1(c2ccc(C(=O)O)cc2)CC1 [Example 67, (R)-4-(1-(2-((2-(difluoromethoxy)pyridin-4-yl)methoxy)-3-methylbutanamido)cyclopropyl)benzoic acid]
69.2 | CC(C)[C@@H](OCc1ccc(C(F)(F)F)cn1)C(=O)NC1(c2ccc(C(=O)O)cc2)CC1 [Example 75, (R)-4-(1-(3-methyl-2-((5-(trifluoromethyl)pyridin-2-yl)methoxy)butanamido)cyclopropyl)benzoic acid]
> 209 | CC(C)[C@@H](OCc1cccc(C2CC2)c1)C(=O)NC1(c2ccc(C(=O)O)cc2)CC1 [Example 65, (R)-4-(1-(2-((3-cyclopropylbenzyl)oxy)-3-methylbutanamido)cyclopropyl)benzoic acid]
3.31 | O=C(O)c1ccc(C2(NC(=O)C(OCc3cccc(OC(F)F)c3)C3CCC3)CC2)cc1 (stereo not shown) [Example 99, 4-(1-(2-cyclobutyl-2-((3-(difluoromethoxy)benzyl)oxy)acetamido)cyclopropyl)benzoic acid]
20 | CC(C)[C@@H](OCc1cccc(S(=O)(=O)C2CC2)c1)C(=O)NC1(c2ccc(C(=O)O)cc2)CC1 [Example 91, (R)-4-(1-(2-((3-(cyclopropylsulfonyl)benzyl)oxy)-3-methylbutanamido)cyclopropyl)benzoic acid]
0.372 | CC(C)[C@@H](OCc1ccc(F)c(F)c1)C(=O)NC1(c2ccc(-c3nnn[nH]3)cc2)CC1 [Example 71, (R)—N-(1-(4-(1H-tetrazol-5-yl)phenyl)cyclopropyl)-2-((3,4-difluorobenzyl)oxy)-3-methylbutanamide]
